From patent US20070270475A1, “4-Methoxy-Pyrrolidine-2-Carboxylic Acid Compounds and Derivatives Thereof as Hepatitis C Virus Inhibitors” (priority 2004, published 2007) come the findings set out here.

Molecules are shown by their SMILES. Some results are limits rather than exact numbers.

T1 sequence (P27958 2601-2990 limits assumed, stated change not applied): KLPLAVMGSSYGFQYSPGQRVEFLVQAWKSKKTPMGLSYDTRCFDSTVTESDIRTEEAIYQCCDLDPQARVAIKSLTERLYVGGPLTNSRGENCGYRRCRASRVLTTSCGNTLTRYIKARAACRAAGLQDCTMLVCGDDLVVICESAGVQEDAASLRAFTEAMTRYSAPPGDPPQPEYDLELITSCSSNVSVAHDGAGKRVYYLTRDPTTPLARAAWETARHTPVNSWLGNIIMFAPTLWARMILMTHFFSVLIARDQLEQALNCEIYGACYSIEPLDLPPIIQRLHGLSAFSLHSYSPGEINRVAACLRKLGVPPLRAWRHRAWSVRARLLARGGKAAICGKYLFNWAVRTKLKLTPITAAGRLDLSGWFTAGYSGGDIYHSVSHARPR

This experiment addresses T1, HCV RNA Polymerase, recombinant NS5B with C-terminal 21 amino acid deletion, genotype 1a (strain H77) (Hepatitis C virus genotype 1a, UniProt P27958).
T1 construct: fused on or other part: C-terminal 6His-tag
The experiment can be described thus: In vitro HCV RNA-dependent RNA polymerase inhibition assay, genotype 1a C-terminally truncated (delta21) enzyme. It is filed as biochemical, HCV genotype 1a. The settings on record: genotype 1a NS5B delta21, 25 nM enzyme; read-out: IC50 in delta-21 1a enzyme inhibition assay. The text has this: In Vitro Detection of inhibitors of HCV RNA-Dependent RNA Polymerase Activity
Incorporation of [^33P]-GMP into RNA was followed by absorption of the biotin labelled RNA polymer by streptavidin containing SPA beads. A synthetic template consisting of biotinylated 13mer-oligoG hybridised to polyrC was used as a homopolymer substrate.
a) Genotype 1a C-Terminally Truncated (delta21) Enzyme
HCV RNA Polymerase [Recombinant NS5B with C-terminal 21 amino acid deletion and C-terminal 6His-tag (Ferrari et al. J. Virol. 73(2), 1999, 1649. ‘Characterization of soluble hepatitis C virus RNA-dependent RNA polymerase expressed in Escherichia coli.’) expressed in E. coli and purified to homogeneity] was added to 25 nM final concentration. Polymerase of genotype la was from strain H77 (Yanagi, M., Purcell, R. H., Emerson, S. U. & Bukh, J. (1997), Proceedings of the National Academy of Sciences, USA 94, 8738-8743) containing a sequence change from valine to isoleucine at position 180.
Reaction Conditions were 25 nM enzyme, 1.5 μg/ml oligo-rG13/poly-rC and 0.2 μCi α-^33P-GTP in 0.5 μM GTP (20 Ci/mMol) , 20 mM Tris pH 7.5, 23 mM NaCl, 3 mM DTT, 5 mM MgCl2, 1 mM MnCl2.
Enzyme was diluted to 500 nM concentration in 20 mM Tris-HCl, pH 7.5, 25 mM NaCl and 3 mM DTT.
4× concentrated assay buffer mix was prepared using 1M Tris-HCl, pH7.5 (1 mL), 5M NaCl (0.25 mL), 1M DTT (0.12 mL) and Water (8.63 mL), Total 10 mL.
2× concentrated first reagent was prepared using 4× concentrated assay buffer mix (5 μL), 40 μ/μL RNasin (0.1 μL), 20 μg/mL polyrC/biotinylated-oligorG (1.6 μL), 500 nM enzyme (1 μL ) and Water (2.3 μL), Total 10 μL/well.
2× concentrated second reagent was prepared using 1 M MgCl2 ([…]), 1M MnCl2 (0.02 μL), 25 μM GTP (0.4 μL), α-[^33P]-GTP (10 μCi/μL, 0.02 μL) and water (9.5 μL), Total 10 μL/well.
The assay was set up using compound (1 μL in 100% DMSO), first reagent (10 μL), and second reagent (10 μL), Total 21 μL.
The reaction was performed in a U-bottomed, white, 96-well plate. The reaction was mixed on a plate-shaker, after addition of the Enzyme, and incubated for 1 h at 22° C. After this time, the reaction was stopped by addition of 60 μL 1.5 mg/ml streptavidin SPA beads (Amersham) in 0.1 M EDTA in PBS. The beads were incubated with the reaction mixture for 1 h at 22° C. after which 100 μL 0.1 M EDTA in PBS was added. The plate was sealed, mixed centrifuged and incorporated radioactivity determined by counting in a Trilux (Wallac) or Topcount (Packard) Scintillation Counter.
After subtraction of background levels without enzyme, any reduction in the amount of radioactivity incorporated in the presence of a compound, compared to that in the absence, was taken as a measure of the level of inhibition. Ten concentrations of compounds were tested in three- or fivefold dilutions. From the counts per minute, percentage of inhibition at highest concentration tested or IC50s for the compounds were calculated using GraFit 3, GraFit 4 or GraFit 5 (Erithacus Software Ltd.) software packages or a data evaluation macro for Excel based on XLFit software (IDBS).
In the case of `COC[C@H]1C[C@@](Cc2cscn2)(C(=O)O)N(C(=O)c2ccc(C(C)(C)C)c(OC)c2)[C@H]1c1ncc(C)s1` (single isomer, unassigned; enantiomer a) [Example 2], the IC50 is less than 750 nM.

In the case of `COC[C@H]1C[C@@](Cc2cscn2)(C(=O)O)N(C(=O)c2ccc(C(C)(C)C)c(OC)c2)[C@H]1c1ncc(C)s1` (racemic) [Example 1, rel-(2R,4S,5R)-1-(3-Methoxy-4-tert-butylbenzoyl)-4-(methoxymethyl)-5-(5-methyl-1,3-thiazol-2-yl)-2-(1,3-thiazol-4-ylmethyl)pyrrolidine-2-carboxylic acid], the IC50 was less than 750 nM.

Take `COC[C@H]1C[C@@](CC(C)C)(C(=O)O)N(C(=O)c2ccc(C(C)(C)C)c(OC)c2)[C@H]1c1ncc(C)s1` (racemic) [Compound C, rel-(2S,4S,5R)-2-isobutyl-1-(3-methoxy-4-tert-butylbenzoyl)-4-methoxymethyl-5-(5-methyl-1,3-thiazol-2-yl)pyrrolidine-2-carboxylic acid, reference compound]: the IC50 is greater than 1000 nM.

Turning to `COC[C@H]1C[C@@](Cn2cccn2)(C(=O)O)N(C(=O)c2ccc(C(C)(C)C)c(OC)c2)[C@H]1c1ncc(C)s1` (single isomer, unassigned; enantiomer a) [Example 11], the IC50 was less than 750 nM.

For the molecule `COC[C@H]1C[C@@](Cn2cccn2)(C(=O)O)N(C(=O)c2ccc(C(C)(C)C)c(OC)c2)[C@H]1c1ncc(C)s1` (racemic) [Example 10, rel-(2R,4S,5R)-1-(3-Methoxy-4-tert-butylbenzoyl)-4-(methoxymethyl)-5-(5-methyl-1,3-thiazol-2-yl)-2-(1H-pyrazol-1-ylmethyl)pyrrolidine-2-carboxylic acid], the IC50 was less than 750 nM.

`COC[C@H]1C[C@@](Cc2ccsn2)(C(=O)O)N(C(=O)c2ccc(C(C)(C)C)c(OC)c2)[C@H]1c1ncc(C)s1` (racemic) [Example 9, rel-(2R,4S,5R)-1-(3-Methoxy-4-tert-butylbenzoyl)-4-(methoxymethyl)-5-(5-methyl-1,3-thiazol-2-yl)-2-(1,2-thiazol-3-ylmethyl)pyrrolidine-2-carboxylic acid]: the IC50 was less than 750 nM.

As for `COC[C@H]1C[C@@](Cc2nccs2)(C(=O)O)N(C(=O)c2ccc(C(C)(C)C)c(OC)c2)[C@H]1c1ncc(C)s1` (racemic) [Example 8, rel-(2R,4S,5R)-1-(3-Methoxy-4-tert-butylbenzoyl)-4-(methoxymethyl)-5-(5-methyl-1,3-thiazol-2-yl)-2-(1,3-thiazol-2-ylmethyl)pyrrolidine-2-carboxylic acid], the IC50 is less than 750 nM.

On to `COC[C@H]1C[C@@](CC(C)C)(C(=O)O)N(C(=O)c2ccc(C(C)(C)C)c(OC)c2)[C@H]1c1nccs1` (racemic) [Compound A, rel-(2S,4S,5R)-2-isobutyl-1-(3-methoxy-4-tert-butylbenzoyl)-4-methoxymethyl-5-(1,3-thiazol-2-yl)pyrrolidine-2-carboxylic acid, reference compound], for which the IC50 is greater than 1000 nM.

For `COC[C@H]1C[C@@](Cn2cccn2)(C(=O)O)N(C(=O)c2ccc(C(C)(C)C)c(OC)c2)[C@H]1c1nccs1` (single isomer, unassigned) [Example 7], the IC50 was less than 750 nM.

On to `COC[C@H]1C[C@@](Cc2cscn2)(C(=O)O)N(C(=O)c2ccc(C(C)(C)C)c(OC)c2)[C@H]1c1nccs1` (single isomer, unassigned; enantiomer a) [Example 12], for which the IC50 was less than 750 nM.

For the molecule `COCC1CC(CC(C)C)(C(=O)O)N(C(=O)c2ccc(C(C)(C)C)c(OC)c2)C1c1ncc(C)s1` (single isomer, unassigned; enantiomer a) [Compound D, reference compound], the IC50 fell in the range of 750 to 1000 nM.

Regarding `COC[C@H]1C[C@@](Cn2cccn2)(C(=O)O)N(C(=O)c2ccc(C(C)(C)C)c(OC)c2)[C@H]1c1nccs1` (racemic) [Example 6, rel-(2R,4S,5R)-1-(3-Methoxy-4-tert-butylbenzoyl)-4-(methoxymethyl)-2-(1H-pyrazol-1-ylmethyl)-5-(1,3-thiazol-2-yl)pyrrolidine-2-carboxylic acid], the IC50 is less than 750 nM.

Take `COC[C@H]1C[C@@](CC(C)C)(C(=O)O)N(C(=O)c2ccc(C(C)(C)C)c(OC)c2)[C@H]1c1nccs1` [Compound B, (2S,4S,5R)-2-isobutyl-1-(3-methoxy-4-tert-butylbenzoyl)-4-methoxymethyl-5-(1,3-thiazol-2-yl)pyrrolidine-2-carboxylic acid, reference compound]: the IC50 is greater than 1000 nM.

For `COC[C@H]1C[C@@](Cc2ccsn2)(C(=O)O)N(C(=O)c2ccc(C(C)(C)C)c(OC)c2)[C@H]1c1nccs1` (single isomer, unassigned; enantiomer a) [Example 5], the IC50 was less than 750 nM.

As to `COC[C@H]1C[C@@](Cc2cscn2)(C(=O)O)N(C(=O)c2ccc(C(C)(C)C)c(OC)c2)[C@H]1c1nccs1` (racemic) [Example 3, rel-(2R,4S,5R)-1-(3-Methoxy-4-tert-butylbenzoyl)-4-(methoxymethyl)-5-(1,3-thiazol-2-yl)-2-(1,3-thiazol-4-ylmethyl)pyrrolidine-2-carboxylic acid], the IC50 is less than 750 nM.

Consider `COC[C@H]1C[C@@](Cc2ccccc2)(C(=O)O)N(C(=O)c2ccc(C(C)(C)C)c(OC)c2)[C@H]1c1nccs1` (racemic) [Compound E, rel-(2R,4S,5R)-2-benzyl-1-(3-methoxy-4-tert-butylbenzoyl)-4-methoxymethyl-5-(1,3-thiazol-2-yl)-pyrrolidine-2-carboxylic acid, reference compound], for which the IC50 is greater than 1000 nM.

Regarding `COC[C@H]1C[C@@](Cc2ccsn2)(C(=O)O)N(C(=O)c2ccc(C(C)(C)C)c(OC)c2)[C@H]1c1nccs1` (racemic) [Example 4, rel-(2R,4S,5R)-1-(3-Methoxy-4-tert-butylbenzoyl)-4-(methoxymethyl)-5-(1,3-thiazol-2-yl)-2-(1,2-thiazol-3-ylmethyl)pyrrolidine-2-carboxylic acid], the IC50 is less than 750 nM.
